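The compound was tested at five concentrations on cells cultured in 96-well plates, with a 48-hour exposure period. GI50: concentration for 50% inhibition of growth.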 Active and inactive are the calls of the source. Rule as the data show it: active = GI50 up to about 1.1 µM and inactive = higher.
What was measured:
Test in all cases: NCI anticancer screen, dose series, 48 h
[1] = test system: SF-268
[2] = test system: SNB-78
[3] = test system: SF-295
[4] = test system: LOX IMVI
[5] = test system: K562
[6] = test system: HCC 2998
[7] = test system: TK-10
[8] = test system: OVCAR-4
[9] = test system: CCRF-CEM
[10] = test system: MOLT-4
[11] = test system: U-251
[12] = test system: HT-29
[13] = test system: SK-MEL-28
[14] = test system: HCT-15
[15] = test system: UACC-62
[16] = test system: NCI-H460
[17] = test system: UACC-257
[18] = test system: MDA-N
[19] = test system: T47D

SMILES: COc1ccc(C(N)=O)c(OC)c1OCc1ccccc1
- GI50 [1]: > 100 µM (inactive)
- GI50 [2]: > 100 µM (inactive)
- GI50 [3]: > 100 µM (inactive)
- GI50 [4]: > 100 µM (inactive)
- GI50 [5]: > 100 µM (inactive)
- GI50 [6]: > 100 µM (inactive)
- GI50 [7]: > 100 µM (inactive)
- GI50 [8]: > 100 µM (inactive)
- GI50 [9]: > 100 µM (inactive)
- GI50 [10]: > 100 µM (inactive)
- GI50 [11]: > 100 µM (inactive)
- GI50 [12]: > 100 µM (inactive)
- GI50 [13]: > 100 µM (inactive)
- GI50 [14]: > 100 µM
- GI50 [15]: > 100 µM (inactive)
- GI50 [16]: > 100 µM (inactive)

SMILES: CN1C(c2ccccc2)CC(=Nc2ccccc2)CC1c1ccccc1 (stereo not given)
- GI50 [1]: 10.8 µM (inactive)
- GI50 [2]: 15 µM (inactive)
- GI50 [3]: 15.6 µM (inactive)
- GI50 [17]: 10.4 µM (inactive)
- GI50 [4]: 4.48 µM (inactive)
- GI50 [5]: 13.2 µM (inactive)
- GI50 [7]: 19.2 µM (inactive)
- GI50 [8]: 10.4 µM (inactive)
- GI50 [9]: 16.2 µM (inactive)
- GI50 [10]: 7.13 µM (inactive)
- GI50 [11]: 6.82 µM (inactive)
- GI50 [12]: 8.67 µM (inactive)
- GI50 [13]: 10.8 µM (inactive)
- GI50 [14]: 16.1 µM
- GI50 [16]: 13.5 µM (inactive)

SMILES: CC1(C)OC(C(=O)Nc2cc3c4ccccc4ccc3c3ccccc23)C(C(=O)N2CCCCC2)O1 (stereo not given)
- GI50 [1]: 2.43 µM (inactive)
- GI50 [3]: 1.32 µM (inactive)
- GI50 [17]: > 25.1 µM (inactive)
- GI50 [4]: 0.344 µM (active)
- GI50 [5]: 0.619 µM (active)
- GI50 [6]: > 74.1 µM (inactive)
- GI50 [7]: > 22.6 µM (inactive)
- GI50 [8]: 21.5 µM (inactive)
- GI50 [9]: 0.537 µM (active)
- GI50 [10]: 0.574 µM (active)
- GI50 [11]: 1.14 µM (inactive)
- GI50 [12]: 0.74 µM (active)
- GI50 [13]: > 39.4 µM (inactive)
- GI50 [14]: 0.419 µM
- GI50 [15]: 1.17 µM (inactive)
- GI50 [18]: 5.94 µM (inactive)
- GI50 [16]: 0.385 µM (active)
- GI50 [19]: 6.62 µM (inactive)

SMILES: CCc1ccccc1NC(=O)C1=C(C)NC(C)=C(C(=O)Nc2ccccc2CC)C1c1ccccc1Cl
- GI50 [1]: > 100 µM (inactive)
- GI50 [2]: > 100 µM (inactive)
- GI50 [3]: > 100 µM (inactive)
- GI50 [17]: > 100 µM (inactive)
- GI50 [4]: > 100 µM (inactive)
- GI50 [5]: > 100 µM (inactive)
- GI50 [6]: > 100 µM (inactive)
- GI50 [7]: > 100 µM (inactive)
- GI50 [8]: > 100 µM (inactive)
- GI50 [9]: 37.8 µM (inactive)
- GI50 [10]: 92.7 µM (inactive)
- GI50 [11]: > 100 µM (inactive)
- GI50 [12]: > 100 µM (inactive)
- GI50 [13]: > 100 µM (inactive)
- GI50 [16]: > 100 µM (inactive)

SMILES: CC(C)(Cl)C(Cl)CC/C(CBr)=C(\Cl)CBr (stereo not given)
- GI50 [1]: 3.3 µM (inactive)
- GI50 [3]: 6.49 µM (inactive)
- GI50 [17]: 2.08 µM (inactive)
- GI50 [4]: 0.209 µM (active)
- GI50 [5]: 0.586 µM (active)
- GI50 [6]: 9.68 µM (inactive)
- GI50 [7]: 1.95 µM (inactive)
- GI50 [8]: 1.51 µM (inactive)
- GI50 [9]: 0.15 µM (active)
- GI50 [10]: 0.473 µM (active)
- GI50 [11]: 1.83 µM (inactive)
- GI50 [12]: 2.84 µM (inactive)
- GI50 [13]: 2.03 µM (inactive)
- GI50 [14]: 1.75 µM
- GI50 [15]: 1.76 µM (inactive)
- GI50 [18]: 1.81 µM (inactive)
- GI50 [16]: 2.71 µM (inactive)
- GI50 [19]: 1.96 µM (inactive)

SMILES: COC(C)(C)[C@@H](O)[C@H]1C[C@H](C)[C@@]2(CC[C@]3(C)[C@@H]2CC[C@@H]2[C@@]4(C)CC[C@@H](OC(C)=O)C(C)(C)[C@@H]4C[C@@H](OC4OC(COC(C)=O)C(O)C(O)C4O)[C@]23C)O1 (stereo not given in full)
- GI50 [1]: 4.98 µM (inactive)
- GI50 [3]: 4.51 µM (inactive)
- GI50 [17]: 6.44 µM (inactive)
- GI50 [4]: 3.9 µM (inactive)
- GI50 [5]: 3.79 µM (inactive)
- GI50 [6]: 0.662 µM (active)
- GI50 [7]: 12.2 µM (inactive)
- GI50 [8]: 3.48 µM (inactive)
- GI50 [9]: 3.3 µM (inactive)
- GI50 [10]: 2.32 µM (inactive)
- GI50 [11]: 5.7 µM (inactive)
- GI50 [12]: 1.89 µM (inactive)
- GI50 [13]: 7.57 µM (inactive)
- GI50 [14]: 2.39 µM
- GI50 [15]: 4.93 µM (inactive)
- GI50 [18]: 5.43 µM (inactive)
- GI50 [16]: 4.37 µM (inactive)
- GI50 [19]: 4.14 µM (inactive)

Reference: ChEMBL document CHEMBL1201862, “PubChem BioAssay data set” (2004)
